Like-named read-outs stand apart in the source and are kept apart here.
Columns and labels:
[1] = Infusion of exogenous PGD2 i.p. into mice, urinary PGD2 metabolites; type: in vivo, mouse
Procedure: (§1) Urine analysis: ^18O2-2,3-dinor-11β-PGF2α, and ^18O^2-11β-PGF2α were added to 1 milliliter (ml) of human urine or […] of mouse urine and were allowed to equilibrate for 15 minutes. […] The resulting residue was then reconstituted with 100 μl of 5% acetonitrile in water and was filtered by centrifugation.
(§2) The ESI source used nitrogen for both sheath and auxiliary gas and was set at 70 and 5 (arbitrary units), respectively. The mass spectrometer was operated in the negative ion mode with a capillary temperature of 350° C. and a spray voltage of 2.0 kV. […] The transitions for endogenous 2,3-dinor-11β-PGF2α and ^18O2-2,3-dinor-11β-PGF2α, were m/z 325→145 and m/z 329→145 with CE 13 eV, respectively. They were m/z […] and m/z 357→197 for 9α,11β-PGF2α and ^18O2-9α,11β-PGF2α with CE 24 eV.
Studies in mice: All studies were performed following protocol review and approval by the Institutional Animal Care and Use Committee (IAUCC) of the University of Pennsylvania. (i) Infusion studies: vehicle or PGD2 [20, 150 or 500 μg] was infused i.p. into twelve-week-old male C57/BL6 mice (n=5 per group). Urine was collected for 24 hours in metabolic cages for analysis of PGD2 metabolites. (ii) PGDS knockouts: Urine was collected for 24 hours from three- to four-month-old male wild type mice, L-PGDS knockout mice (kindly provided by Dr. Yoshihiro Urade, Osaka, Japan) and H-PGDS knockout mice (kindly provided by Dr. Yoshihide Kanaoka, Boston, Mass.), all on a C57/BL6 background (n=15 for WT and LPGDS knockouts and n=10 for H-PGDS knockouts).
(§3) Results are expressed as mean+/−SEM.

[2] = tested on: PGD2 levels; test: Urinary tetranor PGDM in patients undergoing PTCA; type: in vivo, human; settings: for Level of tetranor-PGDM, Post-PTCA, no aspirin / Level of tetranor-PGDM, Pre-PTCA, no aspirin / Level of tetranor-PGDM, During-PTCA, no aspirin: patient (n=1) on clopidogrel and no aspirin
Description: PGD2 levels were studied in patients undergoing percutaneous transluminal coronary angioplasty (PTCA). PTCA is a common non-surgical treatment for opening obstructed coronary arteries. During PTCA, a balloon-tipped catheter is threaded from an artery in the groin to the trouble spot in the artery of the heart. The balloon is then inflated, thereby compressing the plaque and opening (dilating) the narrowed coronary artery so that blood flow is improved. In some instances, an expandable metal stent is also inserted; stents are wire mesh tubes used to counteract further constriction. The inclusion and exclusion criteria for participation in the PGD2 level assessment were as follows. Inclusion: • a. Males and females between the ages of 18-99. • b. […] Treated with any dose of aspirin (acetylsalicylic acid; ASA) daily for at least 5 days OR • 2. […] Treated with an alternative antiplatelet therapy, such as clopidogrel, due to an aspirin hypersensitivity or PMDs preference OR • 4. […] No aspirin therapy at all. • c. Patients presenting to the emergency room (ER) with Acute Coronary Syndrome (ACS) who will have a PTCA. • d. Patients with stable angina or positive stress tests scheduled for a cardiac catheterization. Exclusion: • a. History of unstable diabetes (Hgb A1c>8 or FBS>200). • b. Uncontrolled hypertension (SBP>180, DBP>100). • c. History of an acute confounding disease as judged on clinical screen that according to the investigator may interfere with interpretation of the study results, or compromise the safety of a potential subject. • d. […] Nineteen (19) subjects scheduled for elective PTCA and/or who presented to the emergency room with acute coronary syndrome and subsequently ordered a PTCA were screened according to the inclusion and exclusion criteria. […] Urine was collected from each subject at three times. […] Urine samples were kept at −80° C. The tetranor PDGM level in each sample was then determined by stable isotope dilution, tandem mass spectrometric quantification, following thawing of the sample. The tetranor PGDM level was normalized to the quantity in milligrams (mg) of urine creatinine.

[3] = tested on: biosynthesis of PGD2; test: Aspirin single dose in healthy volunteers, urinary PGD2 metabolites; type: in vivo, human; settings: mean±SEM
Procedure: as §1, §2
(§4) Clinical Studies: Four clinical studies were performed.
In a fourth study, a single dose of aspirin (325 mg) was administered to healthy volunteers (n=18; 9 males and 9 females). Urinary PGD2 metabolites were assessed at time 0 in spot urines and 0-4 hours in urine collected from 0-4 hrs after dosing.
as §3

[4] = Procedure: (§5) In a second study, niacin (dose was 400 mg or 600 mg) was administered to two healthy male volunteers. Urinary PGD2 metabolites were assessed in spot urines collected at the following time points before (time 0) and after (1, 2, 3, 4, 5, 6 hours) niacin administration.
[5] = tested on: biosynthesis of PGD2
Procedure: as §5

[6] = tested on: biosynthesis of PGD2; test: Rofecoxib single dose in healthy volunteers, urinary PGD2 metabolites; type: in vivo, human; settings: rofecoxib 25 mg single dose, 0 vs 4 hours
Procedure: as §1, §2, §4
In a third study, 18 healthy volunteers (9 male and 9 female) received, in random order, a single dose of placebo or rofecoxib (25 mg) under double-blind conditions, separated by washout periods of at least 2 weeks. Urinary PGD2 metabolites were assessed at 0 and 4 hours in spot urine samples that were collected 30 minutes after voiding.
as §3

[7] = mice, 20, 150 or 500 μg PGD2 i.p.
[8] = mice, maximal dose 500 ug PGD2 i.p., 24 h urine, mean±SEM
[9] = time 0, before aspirin 325 mg single dose
[10] = niacin 400 mg or 600 mg, spot urines 0-6 hours

CCCCC[C@H](O)/C=C/[C@H]1C(=O)C[C@H](O)[C@@H]1C/C=C\CCCC(=O)O [PGD2, prostaglandin D2]
fractional conversion of PGD2 to each metabolite [1, 7]: uninfluenced by dose | response of all 3 urinary metabolites to PGD2 infusion [1, 7]: increased dose dependently | infused PGD2 excreted as the tetranor PGDM metabolite in mouse urine ([1]; mice, i.p. infusion): 3-10% | urinary 2,3-dinor-11β-PGF2α level attained after PGD2 infusion [1, 8]: 809±346 ng/mg creatinine | urinary 11β-PGF2α level attained after PGD2 infusion [1, 8]: 207±67 ng/mg creatinine | urinary tetranor PGDM level attained after PGD2 infusion [1, 8]: 2498±792 ng/mg creatinine

CC(=O)Oc1ccccc1C(=O)O [aspirin, acetylsalicylic acid]
Level of tetranor-PGDM, Post-PTCA, 81 mg aspirin ([2]; patients (n=3) on daily 81 mg aspirin, urine after procedure): 3.1 ng/mg creatinine | Level of tetranor-PGDM, Pre-PTCA, 81 mg aspirin ([2]; patients (n=3) on daily 81 mg aspirin, urine before procedure): 2.6 ng/mg creatinine | Level of tetranor-PGDM, During-PTCA, 81 mg aspirin ([2]; patients (n=3) on daily 81 mg aspirin, urine during procedure): 1.8 ng/mg creatinine | Level of tetranor-PGDM, Post-PTCA, 325 mg aspirin ([2]; patients on daily 325 mg aspirin, urine after procedure): 3.1 ng/mg creatinine | Level of tetranor-PGDM, Pre-PTCA, 325 mg aspirin ([2]; patients on daily 325 mg aspirin, urine before procedure): 2.9 ng/mg creatinine | Level of tetranor-PGDM, During-PTCA, 325 mg aspirin ([2]; patients on daily 325 mg aspirin, urine during procedure): 2.8 ng/mg creatinine | urinary tetranor PGDM level following aspirin ([3]; 0-4 hrs after aspirin 325 mg single dose, p<0.001): 0.86±0.07 ng/mg creatinine | urinary 2,3-dinor-11β-PGF2α level following aspirin ([3]; 0-4 hrs after aspirin 325 mg single dose, p<0.01): 0.32±0.04 ng/mg creatinine | urinary 2,3-dinor-11β-PGF2α level before aspirin [3, 9]: 0.63±0.11 ng/mg creatinine | urinary tetranor PGDM level before aspirin [3, 9]: 1.71±0.21 ng/mg creatinine

COC(=O)[C@H](c1ccccc1Cl)N1CCc2sccc2C1 [clopidogrel]
Level of tetranor-PGDM, Post-PTCA, no aspirin ([2]; urine after procedure): 13.1 ng/mg creatinine | Level of tetranor-PGDM, Pre-PTCA, no aspirin ([2]; urine before procedure): 11.5 ng/mg creatinine | Level of tetranor-PGDM, During-PTCA, no aspirin ([2]; urine during procedure): 26.3 ng/mg creatinine

O=C(O)c1cccnc1 [niacin]
time after which flushing had dissipated ([4]; niacin 400 mg or 600 mg oral): 2 to 3 h | flushing after oral administration ([4]; niacin 400 mg or 600 mg, two volunteers, face and upper part of the body): intense flush | relationship between metabolite excretion and the doses of niacin ([5]; 400 mg vs 600 mg): not apparent | time of fall of urinary metabolites to basal levels after dosing ([5]; niacin 400 mg or 600 mg): 5 to 6 h | time of peak of urinary tetranor PGDM and 2,3-dinor-11β-PGF2α after dosing ([5]; niacin 400 mg or 600 mg): 2 to 3 h | effect on urinary 2,3-dinor-11β-PGF2α [5, 10]: elevated | effect on urinary tetranor PGDM [5, 10]: elevated

CS(=O)(=O)c1ccc(C2=C(c3ccccc3)C(=O)OC2)cc1 [rofecoxib]
effect on urinary 2,3-dinor-11β-PGF2α [6]: failed to depress | effect on urinary tetranor PGDM [6]: failed to depress

O=C(O)CCCCC(=O)CC[C@H]1C(=O)C[C@H](O)[C@@H]1CCC(=O)O [tetranor PGDM, 11,15-dioxo-9α-hydroxy-2,3,4,5-tetranor-prostan-1,20-dioic acid]
Level of tetranor-PGDM, Post-PTCA, no aspirin ([2]; urine after procedure): 13.1 ng/mg creatinine | Level of tetranor-PGDM, Pre-PTCA, no aspirin ([2]; urine before procedure): 11.5 ng/mg creatinine | Level of tetranor-PGDM, During-PTCA, no aspirin ([2]; urine during procedure): 26.3 ng/mg creatinine

Reference: patent publication US8785682B2, “Tetranor PGDM: a biomarker of PGD2 synthesis in vivo” (The Trustees of the University of Pennsylvania, priority 2007, dated 2014)
